Values quoted from earlier work, collected in patent EP0005248A2, “Tetrapeptidehydrazide derivatives and process for their preparation” (Takeda Chemical Industries, Ltd., priority 1978, dated 1979).

Conditions: for analgesic action: intravenous administration

In the case of “β-Endorphin (YGGFMTSEKSQTPLVTLFKNAIIKNAYKKGE; Beta-endorphin; UniProt P01189 237-267, looked up)”, the analgesic action is given as “profound analgesic effects”.
In the case of H=ryr -Gly-Gly-Phe-Met-OH, the morphinomimetic action (directly administered by the intracerebral route) is given as “display a morphinemimetic action” and the analgesic action is given as “do not have an analgesic action”.
